In patent publication EP0542363A2 (GLAXO GROUP LIMITED, priority 1991, dated 1993) one finds IC50 data, which are given here for 17 compounds.

The test system of the experiment is human gel filtered platelets (GFP). The experiment can be described thus: Inhibition of ADP-induced blood platelet aggregation in gel filtered platelets (Born-type optical aggregometer). The experiment is classed as cell-based. The settings on record: human GFP approx. 300,000 platelets/µl, human fibrinogen 0.5mg/ml, Ca2+ 1mM, Mg2+ 0.5mM, compounds incubated 5 minutes at 37°C, ADP 1 x 10⁻⁵M, concentration producing 50% inhibition of platelet aggregation, read-out: IC₅₀. Here is the method: Inhibition of blood platelet aggregation by compounds of the invention was determined according to the following procedure. Citrated whole blood (1 part 3.8% trisodium citrate : 9 parts blood) was obtained from human volunteers, free of medication for at least 10 days prior to collection. The blood was incubated with 0.1mM aspirin and 0.05µM prostacyclin and then centrifuged at 1000g for 4 minutes (20°C). The supernatant platelet rich plasma (PRP) was further centrifuged at 1300g for 10 minutes (20°C) to sediment the platelets. The supernatant was discarded and the pellet washed with a physiological salt solution (HEPES 5mM, NaHCO₃ 12mM, NaCl 140mM, KH₂PO₄ 0.74mM, D-Glucose 5.6mM, KCl 2.82mM and BSA 20g/l, pH 7.4) to remove residual plasma. After washing, the pellet was resuspended in physiological salt solution and then applied to a sepharose CL-2B column, pre-equilibrated with physiological salt solution at room temperature. The platelets (GFP) eluted within the void volume and were diluted to approximately 300,000 platelets/µl in buffer. Purified human fibrinogen (Knight L.C. et al, 1981 Thromb. Haemostasis, 46(3), 593-596) was added to a final concentration of 0.5mg/ml together with Ca2+ and Mg2+ at 1mM and 0.5mM respectively. […] The potency of the compounds may be expressed as an IC₅₀ value defined as the concentration of compound required to produce 50% inhibition of platelet aggregation.

Counter-ions that a name gives are not always drawn. Like-named read-outs stand apart in the source and are kept apart here.

Turning to `C[N@+]1(CC(=O)O)CC[C@H](N2CCN(c3ccc(C(=N)N)cc3)CC2)CC1` [Example 16a, trans-4-[4-[4-(Aminoiminomethyl)phenyl]-1-piperazinyl]-1-(2-hydroxy-2-oxoethyl)-1-methylpiperidinium trifluoroacetate salt], the IC50 (5 min) was found to be 44 nM.
For the compound `NC(=NO)c1ccc(N2CCN(C3CCN(CC(=O)O)CC3)CC2)cc1` [Example 17, 4-[4-[4-[Amino(hydroxyimino)methyl]phenyl]-1-piperazinyl]-1-piperidineacetic acid trifluoroacetate], the IC50 (5 min) was determined as 5660 nM.
The same measure, in the same setting: the figure for `C[N@+]1(CC(=O)O)CC[C@H](C2CCN(c3ccc(C(=N)N)cc3)CC2)CC1` [Example 21, trans-4-[1-[4-(Aminoiminomethyl)phenyl]-4-piperidinyl]-1-(2-hydroxy-2-oxoethyl)-1-methylpiperidinium trifluoroacetate salt] is 41 nM; for `N=C(N)c1ccc(N2CCN(C3CCN(CC(=O)O)CC3)CC2)nc1` [Example 41, trifluoroacetate salt] it is 30 nM; for `CC1CN(c2ccc(C(=N)N)cc2)CCN1C1CCN(CC(=O)O)CC1` (centres unmarked) [Example 20, trifluoroacetate salt] it is 71 nM.
For the compound “4-[4-[4-[(Diethylphosphinyl)amino]iminomethyl]phenyI]-1-piperazinyl]-1- piperidineacetic acid trifluoroacetate salt [Example 36]”, the IC50 amounted to 2680 nM.
On to `C[C@@H]1CN(CC(=O)O)CC[C@@H]1N1CCN(c2ccc(C(=N)N)cc2)CC1` (relative stereo) [Example 30, cis-4-[4-[4-Aminoiminomethyl)phenyl]-1-piperazinyl]-3-methyl-1-piperidineacetic acid trihydrochloride salt], for which, where the note is “5 min”, the IC50 is 23 nM.
On the same count and under the same terms, next, `N=C(N)c1ccc(N2CCN(C3CCN(CC(=O)O)CC3)CC2)c(Br)c1` [Example 24, trifluoroacetate salt]: 342 nM.
On the same count and under the same terms, next, `N=C(NCC(F)(F)F)c1ccc(N2CCN(C3CCN(CC(=O)O)CC3)CC2)cc1` [Example 18, 4-[4-[4-[Imino[(2,2,2-trifluoroethyl)amino]methyl]phenyl]-1-piperazinyl]-1-piperidineacetic acid trifluoroacetate salt]: 316 nM.
The same measure, in the same setting: next, `COC(=O)NC(=N)c1ccc(N2CCN(C3CCN(CC(=O)O)CC3)CC2)cc1` [Example 34, 4-[4-[4-[Imino[(methoxycarbonyl)amino]methyl]phenyl]-1-piperazinyl]-1-piperidineacetic acid trifluoroacetate salt]: 1600 nM.
Turning to `N=C(N)c1ccc(N2CCN(C3CC[N+](CC(=O)O)(Cc4ccccc4)CC3)CC2)cc1` (stereo not drawn) [Example 29, cis-4-[4-[4-(Aminoiminomethyl)phenyl]-1-piperazinyl]-1-(2-hydroxy-2-oxoethyl)-1-(phenylmethyl)piperidinium trifluoroacetate salt], the IC50 (trifluoroacetate salt) turned out to be 354 nM.
Same read-out and setting: next, `N=C(N)c1ccc(N2CCN(C3CC[N+](CC(=O)O)(Cc4ccccc4)CC3)CC2)cc1` (stereo not drawn) [Example 28, trans-4-[4-[4-(Aminoiminomethyl)phenyl]-1-piperazinyl]-1-(2-hydroxy-2-oxoethyl)-1-(phenylmethyl)piperidinium trifluoroacetate salt]: 38 nM.
Take `CCOC(=O)CN1CCC(N2CCN(c3ccc(C(=N)N)cc3)CC2)CC1` [Example 23, trifluoroacetate salt]: the IC50 (5 min) turned out to be 16200 nM.
Still for that read-out and setting: next, `CC(C(=O)O)N1CCC(N2CCN(c3ccc(C(=N)N)cc3)CC2)CC1` (centres unmarked) [Example 26]: 177 nM; `N=C(N)c1ccc(C2CCN(C3CCN(CC(=O)O)CC3)CC2)cc1` [Example 22, trifluoroacetate salt]: 71 nM.
Same read-out and setting: next, `N=C(N)c1ccc(N2CCN(C3CCN(CC(=O)O)CC3)CC2)cn1` [Example 19, trifluoroacetate salt]: 76 nM.
On the same count and under the same terms, next, `Cc1cc(C(=N)N)ccc1N1CCN(C2CCN(CC(=O)O)CC2)CC1` [Example 25, trifluoroacetate salt]: 569 nM.
